Results on 18 molecules are retold here after patent US9919998B2, “Antibacterial agents: Nα-aroyl-N-aryl-phenylalaninamides” (priority 2014, dated 2018).

Format in all cases: cell-based
In data set [1] the test system is Mycobacterium tuberculosis H37Rv. Description: Microplate Alamar Blue assay (MABA) MIC, M. tuberculosis. The settings on record: read-out: MIC Mycobacterium tuberculosis H37Rv. The source says:
(§1) Minimal inhibitory concentrations (MICs) in Mycobacterium tuberculosis H37Rv and Mycobacterium avium ATCC 25291 were quantified using microplate Alamar Blue assays as described (MABA; [Collins, L. & Franzblau, S. (1997) Microplate Alamar Blue assay versus BACTEC 460 system for high-throughput screening of compounds against Mycobacterium tuberculosis and Mycobacterium avium. Antimicrob. Agents Chemother. 41, 1004-1009]).
For orientation: Alamar Blue is a resazurin reagent that responds to reducing activity.

In data set [2] the test system is Mycobacterium avium ATCC 25291. In words: Microplate Alamar Blue assay (MABA) MIC, M. avium. The conditions noted are these: ATCC25291, M. avium ATCC 25291.
Description: as §1

Data set [3] concerns Mycobacterium smegmatis ATCC 19420. Description: Broth microdilution MIC, M. smegmatis. The conditions noted are these: Mycolicibacterium smegmatis, ATCC19420, M. smegmatis ATCC 19420; read-out: MIC Mycobacterium smegmatis ATCC 19420. From the text:
MICs in Mycobacterium smegmatis ATCC 19420 and Mycobacterium smegmatis ATCC 19420 derivatives were quantified using broth microdilution assays as described [Clinical and Laboratory Standards Institute (CLSI/NCCLS) (2009) Methods for Dilution Antimicrobial Susceptibility Tests for Bacteria That Grow Aerobically; Approved Standard, Eighth Edition. CLIS Document M07-A8 (CLIS, Wayne Pa.)].

The test system of data set [4] is Vero E6 ATCC CRL1586 cells. Description: Mammalian-cell cytotoxicity, minimal cytotoxic concentration (CellTiter96). Here is the method: Minimal cytotoxic concentrations (MCCs) against mammalian cells in culture were determined using Vero E6 ATCC CRL1586 cells and the CellTiter96 assay kit (Promega, Inc.). […]

Structures are written as SMILES. Values after ≈ are worked out from the molar mass of the structure shown.

For `O=C(NC(Cc1ccccc1)C(=O)Nc1ccccc1N1CCOCC1)c1ccccc1F` (stereo not drawn) [IX-152, 2-fluoro-N-(1-((2-morpholinophenyl)amino)-1-oxo-3-phenylpropan-2-yl)benzamide], the values for the MIC in data set [1], in data set [2] and in data set [3] were 1.56 µg/mL (≈ 3.49 µM), 3.12 µg/mL (≈ 6.98 µM) and 0.073 µg/mL (≈ 0.163 µM), respectively. In addition, in data set [4], the “MCC mammalian cells Vero E6 ATCC CRL1586” value was found to be 90 µg/mL.
On the same counts, the results for `Cc1ccccc1C(=O)NC(Cc1ccccc1)C(=O)Nc1ccccc1N1CCOCC1` (stereo not drawn) [IX-153, 2-methyl-N-(1-((2-morpholinophenyl)amino)-1-oxo-3-phenylpropan-2-yl)benzamide] are 0.78 µg/mL (≈ 1.76 µM), 1.56 µg/mL (≈ 3.52 µM), 0.036 µg/mL (≈ 0.0812 µM) and 84 µg/mL.
For `O=C(NC(Cc1ccc(O)cc1)C(=O)Nc1ccccc1N1CCOCC1)c1ccccc1` (stereo not drawn) [IX-154, N-(3-(4-hydroxyphenyl)-1-((2-morpholinophenyl)amino)-1-oxo-propan-2-yl)benzamide], in that order: 1.56 µg/mL (≈ 3.5 µM), 1.56 µg/mL (≈ 3.5 µM), 0.095 µg/mL (≈ 0.213 µM) and >100 µg/mL.
As for `O=C(NC(Cc1ccc(O)cc1)C(=O)Nc1ccccc1N1CCOCC1)c1ccccc1F` (stereo not drawn) [IX-155, 2-fluoro-N-(3-(4-hydroxyphenyl)-1-((2-morpholinophenyl)amino)-1-oxopropan-2-yl)benzamide], the figures for the MIC in data set [1], in data set [2] and in data set [3] were 1.56 µg/mL (≈ 3.37 µM), 12.5 µg/mL (≈ 27 µM) and 0.195 µg/mL (≈ 0.421 µM), respectively. The “MCC mammalian cells Vero E6 ATCC CRL1586” value in data set [4] worked out at 77 µg/mL.
For `Cc1ccccc1C(=O)NC(Cc1ccc(O)cc1)C(=O)Nc1ccccc1N1CCOCC1` (stereo not drawn) [IX-156, N-(3-(4-hydroxyphenyl)-1-((2-morpholinophenyl)amino)-1-oxopropan-2-yl)-2-methylbenzamide], in that order: 1.56 µg/mL (≈ 3.39 µM), 3.12 µg/mL (≈ 6.8 µM), 0.095 µg/mL (≈ 0.207 µM) and 81 µg/mL.
As to `O=C(NC(Cc1ccccc1)C(=O)Nc1cc(F)ccc1N1CCOCC1)c1ccccc1` (stereo not drawn) [IX-157, N-(1-((5-fluoro-2-morpholinophenyl)amino)-1-oxo-3-phenylpropan-2-yl)benzamide], the figures for the MIC in data set [1], in data set [2] and in data set [3] were 0.78 µg/mL (≈ 1.74 µM), 1.56 µg/mL (≈ 3.49 µM) and 0.047 µg/mL (≈ 0.105 µM), respectively. Further, in data set [4], the “MCC mammalian cells Vero E6 ATCC CRL1586” value was 48 µg/mL.
On the same counts, the results for `O=C(NC(Cc1ccccc1)C(=O)Nc1cc(F)ccc1N1CCOCC1)c1ccccc1F` (stereo not drawn) [IX-158, 2-fluoro-N-(1-((5-fluoro-2-morpholinophenyl)amino)-1-oxo-3-phenyl-propan-2-yl)benzamide] are 0.78 µg/mL (≈ 1.68 µM), 0.78 µg/mL (≈ 1.68 µM), 0.097 µg/mL (≈ 0.208 µM) and >100 µg/mL.
For `Cc1ccccc1C(=O)NC(Cc1ccccc1)C(=O)Nc1cc(F)ccc1N1CCOCC1` (stereo not drawn) [IX-159, N-(1-((5-fluoro-2-morpholinophenyl)amino)-1-oxo-3-phenylpropan-2-yl)-2-methylbenzamide], in that order: 0.39 µg/mL (≈ 0.845 µM), 0.39 µg/mL (≈ 0.845 µM), 0.047 µg/mL (≈ 0.102 µM) and 10 µg/mL.
Turning to `O=C(NC(Cc1ccccc1)C(=O)Nc1cc(F)ccc1N1CCOCC1)c1cccs1` (stereo not drawn) [IX-160, N-(1-((5-fluoro-2-morpholinophenyl)amino)-1-oxo-3-phenylpropan-2-yl)thiophene-2-carboxamide], the MIC in data set [1] came to 0.78 µg/mL (≈ 1.72 µM); in data set [2] it was 0.78 µg/mL (≈ 1.72 µM); in data set [3], 0.097 µg/mL (≈ 0.214 µM). The “MCC mammalian cells Vero E6 ATCC CRL1586” value in data set [4] came out at 30 µg/mL.
For `O=C(NC(Cc1ccc(O)cc1)C(=O)Nc1cccc2c1OCCO2)c1ccccc1Br` (stereo not drawn) [IX-176, 2-bromo-N-(1-((2,3-dihydrobenzo[b][1,4]dioxin-5-yl)amino)-3-(4-hydroxyphenyl)-1-oxopropan-2-yl)benzamide], the MIC in data set [1] came out at 6.25 µg/mL (≈ 12.6 µM); in data set [2] it was 6.25 µg/mL (≈ 12.6 µM); in data set [3], 3.1 µg/mL (≈ 6.23 µM). Further, in data set [4], the “MCC mammalian cells Vero E6 ATCC CRL1586” value amounted to 100.0 µg/mL.
In the case of `O=C(NC(Cc1ccccc1)C(=O)Nc1cc(F)ccc1OCF)c1ccccc1F` (stereo not drawn) [IX-177, 2-fluoro-N-(1-((5-fluoro-2-(fluoromethoxy)phenyl)amino)-1-oxo-3-phenylpropan-2-yl)benzamide], the MIC worked out at 0.39 µg/mL (≈ 0.91 µM) in data set [1], 0.78 µg/mL (≈ 1.82 µM) in data set [2] and 0.39 µg/mL (≈ 0.91 µM) in data set [3]. Besides, the “MCC mammalian cells Vero E6 ATCC CRL1586” value in data set [4] is >100 µg/mL.
As to `CC(=O)Oc1ccc(CC(NC(=O)c2ccccc2F)C(=O)Nc2ccccc2N2CCOCC2)cc1` (stereo not drawn) [IX-180, 4-(2-(2-fluorobenzamido)-3-((2-morpholinophenyl)amino)-3-oxopropyl)phenyl acetate], the MIC in data set [1] is 1.56 µg/mL; in data set [2], 6.25 µg/mL; in data set [3] it was 0.097 µg/mL. Besides, the “MCC mammalian cells Vero E6 ATCC CRL1586” value in data set [4] was 91 µg/mL.
For `CC(=O)Oc1ccc(CC(NC(=O)c2ccccc2C)C(=O)Nc2ccccc2N2CCOCC2)cc1` (stereo not drawn) [IX-181, 4-(2-(2-methylbenzamido)-3-((2-morpholinophenyl)amino)-3-oxopropyl)phenyl acetate], in that order: 0.78 µg/mL, 3.12 µg/mL, 0.097 µg/mL and 84 µg/mL.
On to `CC(=O)Oc1ccc(CC(NC(=O)c2cccs2)C(=O)Nc2ccccc2N2CCOCC2)cc1` (stereo not drawn) [IX-182, 4-(3-((2-morpholinophenyl)amino)-3-oxo-2-(thiophene-2-carbox-amido)propyl)phenyl acetate], for which the MIC stood at 0.78 µg/mL in data set [1], 3.12 µg/mL in data set [2] and 0.097 µg/mL in data set [3]. Moreover, the “MCC mammalian cells Vero E6 ATCC CRL1586” value in data set [4] was determined as 99 µg/mL.
Turning to `O=C(NC(Cc1ccc(O)cc1)C(=O)Nc1ccccc1N1CCOCC1)c1cccs1` (stereo not drawn) [IX-183, N-(3-(4-hydroxyphenyl)-1-((2-morpholinophenyl)amino)-1-oxopropan-2-yl)thiophene-2-carboxamide], the minimal inhibitory concentration (MIC) in data set [1] was 1.56 µg/mL (≈ 3.45 µM); in data set [2], 6.25 µg/mL (≈ 13.8 µM); in data set [3], 0.097 µg/mL (≈ 0.215 µM). Besides, in data set [4], the “MCC mammalian cells Vero E6 ATCC CRL1586” value was >100 µg/mL.
Consider `Cc1ccc(F)cc1NC(=O)C(Cc1ccc(O)cc1)NC(=O)c1ccccc1F` (stereo not drawn) [IX-184, 2-fluoro-N-(1-((5-fluoro-2-methylphenyl)amino)-3-(4-hydroxy-phenyl)-1-oxopropan-2-yl)benzamide], for which the minimal inhibitory concentration (MIC) in data set [1] amounted to 1.56 µg/mL (≈ 3.8 µM); in data set [2] it was 3.12 µg/mL (≈ 7.61 µM); in data set [3], 0.39 µg/mL (≈ 0.95 µM). Besides, the “MCC mammalian cells Vero E6 ATCC CRL1586” value in data set [4] is 77 µg/mL.
Take `Cc1ccc(F)cc1NC(=O)C(Cc1ccc(O)cc1)NC(=O)c1ccccc1C` (stereo not drawn) [IX-186, N-(1-((5-fluoro-2-methylphenyl)amino)-3-(4-hydroxyphenyl)-1-oxopropan-2-yl)-2-methylbenzamide]: the results for the MIC in data set [1], in data set [2] and in data set [3] were 1.56 µg/mL (≈ 3.84 µM), 3.12 µg/mL (≈ 7.69 µM) and 0.39 µg/mL (≈ 0.96 µM), respectively. Further, the “MCC mammalian cells Vero E6 ATCC CRL1586” value in data set [4] came to 78 µg/mL.
For `Cc1ccc(F)cc1NC(=O)C(Cc1ccc(O)cc1)NC(=O)c1cccs1` (stereo not drawn) [IX-188, N-(1-((5-fluoro-2-methylphenyl)amino)-3-(4-hydroxyphenyl)-1-oxopropan-2-yl)thiophene-2-carboxamide], in that order: 1.56 µg/mL (≈ 3.92 µM), 1.56 µg/mL (≈ 3.92 µM), 0.097 µg/mL (≈ 0.243 µM) and 48 µg/mL.

The term MIC denotes the least concentration at which growth counts as inhibited.
